The source of these data is ChEMBL document CHEMBL5257109, “Development of actein derivatives as potent anti-triple negative breast cancer agents” (Bioorg Med Chem Lett, 2023).

SMILES strings stand for the structures. Active and inactive are the calls of the source. The calls are words filed in the database; no cut-off is given here.

Test [1] concerns MDA-MB-231. The experiment in a line: Antiproliferative activity against human MDA-MB-231 cells assessed as inhibition of cell growth incubated for 36 hrs by SRB assay. The test is classed as functional, cell-based. Conditions: for IC50: MDA-MB-231, 36 h. For orientation: In SRB staining, fixed cells bind dye roughly in proportion to their protein.
Test [2] has as its system HCC1806. The test can be described thus: Antiproliferative activity against human HCC1806 cells assessed as inhibition of cell growth incubated for 36 hrs by SRB assay. The test is classed as functional, cell-based. Particulars: for IC50: HCC1806, 36 h.
The subject of test [3] is MDA-MB-231. The test can be described thus: Antiproliferative activity against human MDA-MB-231 cells assessed as inhibition of cell growth at 20 uM incubated for 36 hrs by SRB assay relative to control. The test is classed as functional.
For test [4], the system named is HCC1806. The experiment in a line: Antiproliferative activity against human HCC1806 cells assessed as inhibition of cell growth at 20 uM incubated for 36 hrs by SRB assay relative to control. It is filed as functional.

Usually IC50 stands for the concentration at which inhibition is half-maximal. `CC(=O)O[C@@H]1[C@@H](OC(C)=O)[C@H](O[C@H]2CC[C@]34C[C@]35C[C@H](F)[C@]3(C)[C@H]6[C@H](C)C[C@]7(OC(=O)[C@@]8(C)O[C@@H]78)O[C@H]6C[C@@]3(C)[C@@H]5CC[C@H]4C2(C)C)OC[C@H]1OC(C)=O`: the IC50 in the test on MDA-MB-231 [1] and in the test with HCC1806 [2] was more than 20 µM throughout.
For `CC(=O)O[C@@H]1[C@@H](OC(C)=O)[C@H](O[C@H]2CC[C@]34C[C@]35CC(=O)[C@]3(C)[C@H]6[C@H](C)C[C@]7(OC(OC(=O)c8ccccc8F)[C@@]8(C)O[C@@H]78)O[C@H]6C[C@@]3(C)[C@@H]5CC[C@H]4C2(C)C)OC[C@H]1OC(C)=O` (stereo partly specified), the outcome with MDA-MB-231 [1] and with HCC1806 [2] was inactive.
For `CC(=O)O[C@@H]1[C@@H](OC(C)=O)[C@H](O[C@H]2CC[C@]34C[C@]35CC(=O)[C@]3(C)[C@H]6[C@H](C)C[C@]7(OC(=O)[C@@]8(C)O[C@@H]78)O[C@H]6C[C@@]3(C)[C@@H]5CC[C@H]4C2(C)C)OC[C@H]1OC(C)=O`, the result in the test with MDA-MB-231 [1] and in the test with HCC1806 [2] was inactive.
For `CC(=O)O[C@@H]1C[C@@]23C[C@@]24CC[C@H](O[C@@H]2OC[C@@H](O)[C@H](O)[C@H]2O)C(C)(C)[C@@H]4CC[C@H]3[C@]2(C)C[C@@H]3O[C@]4(C[C@@H](C)[C@@H]3[C@@]12C)OC(=O)[C@@]1(C)O[C@@H]41`, the IC50 with MDA-MB-231 [1] and with HCC1806 [2] was more than 20 µM each time.
Consider `CO[C@@H]1O[C@]2(C[C@@H](C)[C@H]3[C@H](C[C@@]4(C)[C@@H]5CC[C@H]6C(C)(C)[C@@H](O[C@@H]7OC[C@@H](OC(C)=O)[C@H](OC(C)=O)[C@H]7OC(C)=O)CC[C@@]67C[C@@]57C[C@@H](OC(C)=O)[C@]34C)O2)[C@@H]2O[C@]12C`, for which the IC50 with MDA-MB-231 [1] and with HCC1806 [2] was more than 20 µM throughout.
Consider `C[C@@H]1C[C@]2(OC(O)[C@@]3(C)O[C@@H]23)O[C@H]2C[C@@]3(C)[C@@H]4CC[C@H]5C(C)(C)[C@@H](O[C@@H]6OC[C@@H](O)[C@H](O)[C@H]6O)CC[C@@]56C[C@@]46CC(=O)[C@]3(C)[C@@H]12` (stereo partly specified), for which the IC50 in the test with MDA-MB-231 [1] and in the test with HCC1806 [2] was more than 20 µM in each case.
Turning to `C[C@@H]1C[C@]2(OC(=O)[C@@]3(C)O[C@@H]23)O[C@H]2C[C@@]3(C)[C@@H]4CC[C@H]5C(C)(C)[C@@H](O[C@@H]6OC[C@@H](O)[C@H](O)[C@H]6O)CC[C@@]56C[C@@]46C[C@H](F)[C@]3(C)[C@@H]12`, the half-inhibitory concentration (IC50) in the test on MDA-MB-231 [1] and in the test with HCC1806 [2] was more than 20 µM throughout.
In the case of `CC(=O)O[C@@H]1[C@@H](OC(C)=O)[C@H](O[C@H]2CC[C@]34C[C@]35C[C@@H](OC(C)=O)[C@]3(C)[C@H]6[C@H](C)C[C@]7(OC(=O)[C@@]8(C)O[C@@H]78)O[C@H]6C[C@@]3(C)[C@@H]5CC[C@H]4C2(C)C)OC[C@H]1OC(C)=O`, the IC50 in the test with MDA-MB-231 [1] and in the test with HCC1806 [2] was more than 20 µM in each case.
In the case of `COC1O[C@]2(C[C@@H](C)[C@H]3[C@H](C[C@@]4(C)[C@@H]5CC[C@H]6C(C)(C)[C@@H](O[C@@H]7OC[C@@H](O)[C@H](O)[C@H]7O)CC[C@@]67C[C@@]57C[C@@H](OC(C)=O)[C@]34C)O2)[C@@H]2O[C@]12C` (stereo partly specified), the 50% inhibitory concentration (IC50) with MDA-MB-231 [1] and in the test with HCC1806 [2] was more than 20 µM in each case.
As a reminder, the inhibition is the relative decrease from the control value, in per cent. In the case of `CC(=O)O[C@@H]1[C@@H](OC(C)=O)[C@H](O[C@H]2CC[C@]34C[C@]35CC(=O)[C@]3(C)[C@H]6[C@H](C)C[C@]7(OC(O)[C@@]8(C)O[C@@H]78)O[C@H]6C[C@@]3(C)[C@@H]5CC[C@H]4C2(C)C)OC[C@H]1OC(C)=O` (stereo partly specified), the inhibition at 20 µM with MDA-MB-231 [3] and in the test with HCC1806 [4] was more than 50% throughout. Also, the IC50 with MDA-MB-231 [1] turned out to be 13 µM; with HCC1806 [2], 8.8 µM.
On to `CC(=O)O[C@@H]1[C@@H](OC(C)=O)[C@H](O[C@H]2CC[C@]34C[C@]35C[C@@H](OC(C)=O)[C@]3(C)[C@H]6[C@H](C)C[C@]7(O[C@H](OC(=O)/C=C/c8ccc(OC(F)(F)F)cc8)[C@@]8(C)O[C@@H]78)O[C@H]6C[C@@]3(C)[C@@H]5CC[C@H]4C2(C)C)OC[C@H]1OC(C)=O`, for which the IC50 in the test with MDA-MB-231 [1] and with HCC1806 [2] was more than 20 µM throughout.
For the molecule `COc1ccc(C(=O)O[C@H]2O[C@]3(C[C@@H](C)[C@H]4[C@H](C[C@@]5(C)[C@@H]6CC[C@H]7C(C)(C)[C@@H](O[C@@H]8OC[C@@H](OC(C)=O)[C@H](OC(C)=O)[C@H]8OC(C)=O)CC[C@@]78C[C@@]68C[C@@H](OC(C)=O)[C@]45C)O3)[C@@H]3O[C@]23C)cc1`, the IC50 with MDA-MB-231 [1] and in the test on HCC1806 [2] was more than 20 µM each time.
Turning to `CC(=O)O[C@@H]1[C@@H](OC(C)=O)[C@H](O[C@H]2CC[C@]34C[C@]35C=C[C@]3(C)[C@H]6[C@H](C)C[C@]7(OC(=O)[C@@]8(C)O[C@@H]78)O[C@H]6C[C@@]3(C)[C@@H]5CC[C@H]4C2(C)C)OC[C@H]1OC(C)=O`, the inhibition at 20 µM in the test with MDA-MB-231 [3] and in the test on HCC1806 [4] was more than 50% throughout. The IC50 in the test on MDA-MB-231 [1] was more than 20 µM; with HCC1806 [2] it was 13.6 µM.
For the molecule `CC(=O)O[C@@H]1[C@@H](OC(C)=O)[C@H](O[C@H]2CC[C@]34C[C@]35C[C@@H](OC(C)=O)[C@]3(C)[C@H]6[C@H](C)C[C@]7(O[C@H](OC(=O)c8ccccc8F)[C@@]8(C)O[C@@H]78)O[C@H]6C[C@@]3(C)[C@@H]5CC[C@H]4C2(C)C)OC[C@H]1OC(C)=O`, the IC50 with MDA-MB-231 [1] and in the test on HCC1806 [2] was more than 20 µM throughout.
`CC(=O)O[C@@H]1C[C@@]23C[C@@]24CC[C@H](O[C@@H]2OC[C@@H](O)[C@H](O)[C@H]2O)C(C)(C)[C@@H]4CC[C@H]3[C@]2(C)C[C@@H]3O[C@]4(C[C@@H](C)[C@@H]3[C@@]12C)O[C@@H](OC(=O)CCC(=O)O)[C@@]1(C)O[C@@H]41`: the IC50 with MDA-MB-231 [1] and with HCC1806 [2] was more than 20 µM in each case.
As to `CO[C@H]1O[C@]2(C[C@@H](C)[C@H]3[C@H](C[C@@]4(C)[C@@H]5CC[C@H]6C(C)(C)[C@@H](O[C@@H]7OC[C@@H](OC(C)=O)[C@H](OC(C)=O)[C@H]7OC(C)=O)CC[C@@]67C[C@@]57C[C@@H](OC(C)=O)[C@]34C)O2)[C@@H]2O[C@]12C`, the IC50 with MDA-MB-231 [1] and in the test on HCC1806 [2] was more than 20 µM throughout.
Regarding `CC(=O)O[C@@H]1[C@@H](OC(C)=O)[C@H](O[C@H]2CC[C@]34C[C@]35C[C@@H](OC(C)=O)[C@]3(C)[C@H]6[C@H](C)C[C@]7(OC(O)[C@@]8(C)O[C@@H]78)O[C@H]6C[C@@]3(C)[C@@H]5CC[C@H]4C2(C)C)OC[C@H]1OC(C)=O` (stereo partly specified), the inhibition at 20 µM in the test on MDA-MB-231 [3] and in the test on HCC1806 [4] was more than 50% throughout. For the same molecule, the IC50 is more than 20 µM with MDA-MB-231 [1] and 3.42 µM with HCC1806 [2].
Regarding `CC(=O)O[C@@H]1[C@@H](OC(C)=O)[C@H](O[C@H]2CC[C@]34C[C@]35C[C@@H](OC(C)=O)[C@]3(C)[C@H]6[C@H](C)C[C@]7(O[C@H](OC(=O)c8ccccc8)[C@@]8(C)O[C@@H]78)O[C@H]6C[C@@]3(C)[C@@H]5CC[C@H]4C2(C)C)OC[C@H]1OC(C)=O`, the IC50 in the test on MDA-MB-231 [1] and in the test on HCC1806 [2] was more than 20 µM each time.
Turning to `CC(=O)OC1O[C@]2(C[C@@H](C)[C@H]3[C@H](C[C@@]4(C)[C@@H]5CC[C@H]6C(C)(C)[C@@H](O[C@@H]7OC[C@@H](OC(C)=O)[C@H](OC(C)=O)[C@H]7OC(C)=O)CC[C@@]67C[C@@]57CC(=O)[C@]34C)O2)[C@@H]2O[C@]12C` (stereo partly specified), the outcome in the test with MDA-MB-231 [1] and in the test with HCC1806 [2] was inactive.
`CC(=O)O[C@@H]1[C@@H](OC(C)=O)[C@H](O[C@H]2CC[C@]34C[C@]35C[C@@H](OC(C)=O)[C@]3(C)[C@H]6[C@H](C)C[C@]7(O[C@H](OC(=O)c8ccc([N+](=O)[O-])cc8)[C@@]8(C)O[C@@H]78)O[C@H]6C[C@@]3(C)[C@@H]5CC[C@H]4C2(C)C)OC[C@H]1OC(C)=O`: the IC50 in the test on MDA-MB-231 [1] and with HCC1806 [2] was more than 20 µM in each case.
Turning to `CC(=O)O[C@@H]1O[C@]2(C[C@@H](C)[C@H]3[C@H](C[C@@]4(C)[C@@H]5CC[C@H]6C(C)(C)[C@@H](O[C@@H]7OC[C@@H](O)[C@H](O)[C@H]7O)CC[C@@]67C[C@@]57C[C@@H](OC(C)=O)[C@]34C)O2)[C@@H]2O[C@]12C`, the IC50 in the test with MDA-MB-231 [1] and in the test with HCC1806 [2] was more than 20 µM in each case.
As to `C[C@@H]1C[C@]2(OC(O)[C@@]3(C)O[C@@H]23)O[C@H]2C[C@@]3(C)[C@@H]4CC[C@H]5C(C)(C)[C@@H](O[C@@H]6OC[C@@H](O)[C@H](O)[C@H]6O)CC[C@@]56C[C@@]46C[C@@H](O)[C@]3(C)[C@@H]12` (stereo partly specified), the IC50 in the test on MDA-MB-231 [1] and in the test with HCC1806 [2] was more than 20 µM in each case.
`CC(=O)O[C@@H]1[C@@H](OC(C)=O)[C@H](O[C@H]2CC[C@]34C[C@]35CC(=O)[C@]3(C)[C@H]6[C@H](C)C[C@]7(OC(OC(=O)c8ccccc8)[C@@]8(C)O[C@@H]78)O[C@H]6C[C@@]3(C)[C@@H]5CC[C@H]4C2(C)C)OC[C@H]1OC(C)=O` (stereo partly specified): the result with MDA-MB-231 [1] and in the test with HCC1806 [2] was inactive.
Take `CC(=O)O[C@H]1O[C@]2(C[C@@H](C)[C@H]3[C@H](C[C@@]4(C)[C@@H]5CC[C@H]6C(C)(C)[C@@H](O[C@@H]7OC[C@@H](O)[C@H](O)[C@H]7O)CC[C@@]67C[C@@]57C[C@@H](OC(C)=O)[C@]34C)O2)[C@@H]2O[C@]12C`: the IC50 in the test on MDA-MB-231 [1] and with HCC1806 [2] was more than 20 µM throughout.
Turning to `C[C@@H]1C[C@]2(OC(=O)[C@@]3(C)O[C@@H]23)O[C@H]2C[C@@]3(C)[C@@H]4CC[C@H]5C(C)(C)[C@@H](O[C@@H]6OC[C@@H](O)[C@H](O)[C@H]6O)CC[C@@]56C[C@@]46C=C[C@]3(C)[C@@H]12`, the IC50 with MDA-MB-231 [1] and in the test with HCC1806 [2] was more than 20 µM throughout.
